Experimental data from patent publication US20070049593A1 (priority 2004, published 2007).
Counter-ions that a name gives are not always drawn.

The compounds below were run against T1, HCV polymerase (Hepatitis C virus genotype 1b, UniProt P26663) (assay: biochemical). Conditions: not given.
T1 construct: a region encoding NS5B (J Virol 1991 March, 65(3), 1105-13, 544 amino acids after deletion of 47 amino acids on the C-terminal); 6xHis (C); made in house; host or cells: Escherichia coli
T1 sequence (P26663 2420-2963): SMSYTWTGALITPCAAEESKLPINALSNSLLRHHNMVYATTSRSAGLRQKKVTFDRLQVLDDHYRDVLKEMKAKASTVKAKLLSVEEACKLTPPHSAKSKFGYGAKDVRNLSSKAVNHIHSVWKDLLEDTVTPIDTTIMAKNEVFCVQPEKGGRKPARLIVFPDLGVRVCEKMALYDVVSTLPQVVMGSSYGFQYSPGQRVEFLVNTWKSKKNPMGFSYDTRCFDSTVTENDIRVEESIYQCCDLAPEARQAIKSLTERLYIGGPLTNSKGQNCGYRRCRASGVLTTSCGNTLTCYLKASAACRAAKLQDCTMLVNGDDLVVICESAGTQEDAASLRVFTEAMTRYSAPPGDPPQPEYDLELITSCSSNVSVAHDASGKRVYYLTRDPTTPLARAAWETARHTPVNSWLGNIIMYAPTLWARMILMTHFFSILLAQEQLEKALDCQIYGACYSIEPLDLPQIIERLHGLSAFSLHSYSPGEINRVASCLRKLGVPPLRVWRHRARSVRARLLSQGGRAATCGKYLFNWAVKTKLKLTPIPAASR
Design: species or system HCV BK strain
In short: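 His-tagged NS5B (BK strain, 47-aa C-terminal deletion, E. coli-expressed) at 0.5 μg/ml copied 5 μg/ml run-off RNA bearing the HCV 3′ UTR with 2 μM UTP plus [3H]UTP, 50 μM ATP/GTP, in pH 7.5 Tris with 5 mM MgCl2, 25 °C, 90 min. TCA-precipitated RNA was counted and IC50 calculated.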
With `O=C(O)c1ccc2c(C3CCCCC3)c3n(c2c1)CCN(CCCCN1CCCCC1)c1cc(Cl)ccc1-3` [Example 1-415, 3-chloro-13-cyclohexyl-5-[4-(piperidin-1-yl)butyl]-6,7-dihydro-5H-benzo[5,6][1,4]diazepino[7,1-a]indole-10-carboxylic acid] the IC50 was less than 100 nM.
`COC[C@H]1CCCN(CCN2CCn3c(c(C4CCCCC4)c4ccc(C(=O)O)cc43)-c3ccc(C)cc32)C1` [Example 1-417, 13-cyclohexyl-5-[2-((S)-3-methoxymethylpiperidin-1-yl)ethyl]-3-methyl-6,7-dihydro-5H-benzo[5,6][1,4]diazepino[7,1-a]indole-10-carboxylic acid dihydrochloride] showed an IC50 of less than 100 nM.
`CS(=O)(=O)c1cccc(COc2ccc3c(c2)N(CCN2CCCCC2)CCn2c-3c(C3CCCCC3)c3ccc(C(=O)O)cc32)c1` [Example 1-418, 13-cyclohexyl-3-(3-methanesulfonylbenzyloxy)-5-[2-(piperidin-1-yl)ethyl]-6,7-dihydro-5H-benzo[5,6][1,4]diazepino[7,1-a]indole-10-carboxylic acid dihydrochloride] was tested, and the IC50 was less than 100 nM.
`CC[C@@H]1CCCN(CCN2CCn3c(c(C4CCCCC4)c4ccc(C(=O)O)cc43)-c3ccc(C)cc32)C1` [Example 1-420, 13-cyclohexyl-5-[2-((R)-3-ethylpiperidin-1-yl)ethyl]-3-methyl-6,7-dihydro-5H-benzo[5,6][1,4]diazepino[7,1-a]indole-10-carboxylic acid dihydrochloride] gave an IC50 of less than 100 nM.
`CC[C@H]1CCCN(CCN2CCn3c(c(C4CCCCC4)c4ccc(C(=O)O)cc43)-c3ccc(C)cc32)C1` [Example 1-422, 13-cyclohexyl-5-[2-((S)-3-ethylpiperidin-1-yl)ethyl]-3-methyl-6,7-dihydro-5H-benzo[5,6][1,4]diazepino[7,1-a]indole-10-carboxylic acid dihydrochloride] was tested, and the IC50 was less than 100 nM.
Work on `CCN(CC)CCCCN1CCn2c(c(C3CCCCC3)c3ccc(C(=O)O)cc32)-c2ccc(Cl)cc21` [Example 1-424, 3-chloro-13-cyclohexyl-5-(4-diethylaminobutyl)-6,7-dihydro-5H-benzo[5,6][1,4]diazepino[7,1-a]indole-10-carboxylic acid] yielded an IC50 of less than 100 nM.
`Cc1ccc2c(c1)N(CCCCN1CCCCC1)CCn1c-2c(C2CCCCC2)c2ccc(C(=O)O)cc21` [Example 1-425, 13-cyclohexyl-3-methyl-5-[4-(piperidin-1-yl)butyl]-6,7-dihydro-5H-benzo[5,6][1,4]diazepino[7,1-a]indole-10-carboxylic acid dihydrochloride] was tested, and the IC50 was less than 100 nM.
`CN1CCCC1CCN1CCn2c(c(C3CCCCC3)c3ccc(C(=O)O)cc32)-c2ccc(Cl)cc21` (centres unmarked) [Example 1-426, 3-chloro-13-cyclohexyl-5-[2-(1-methylpyrrolidin-2-yl)ethyl]-6,7-dihydro-5H-benzo[5,6][1,4]diazepino[7,1-a]indole-10-carboxylic acid dihydrochloride] gave an IC50 of less than 100 nM.
`CCOc1ccc2c(c1)N(CCN1CCC[C@@H](CCOC)C1)CCn1c-2c(C2CCCCC2)c2ccc(C(=O)O)cc21` [Example 1-427, 13-cyclohexyl-3-ethoxy-5-{2-[(S)-3-(2-methoxyethyl)piperidin-1-yl]ethyl}-6,7-dihydro-5H-benzo[5,6][1,4]diazepino[7,1-a]indole-10-carboxylic acid dihydrochloride] showed an IC50 of less than 100 nM.
Work on `CCCN(CC)CCCN1CCn2c(c(C3CCCCC3)c3ccc(C(=O)O)cc32)-c2ccc(Cl)cc21` [Example 1-428, 3-chloro-13-cyclohexyl-5-[3-(N-ethyl-N-propylamino)propyl]-6,7-dihydro-5H-benzo[5,6][1,4]diazepino[7,1-a]indole-10-carboxylic acid dihydrochloride] yielded an IC50 of less than 100 nM.
In the case of `CC(C)N(CCCN1CCn2c(c(C3CCCCC3)c3ccc(C(=O)O)cc32)-c2ccc(Cl)cc21)C(C)C` [Example 1-429, 3-chloro-13-cyclohexyl-5-(3-diisopropylaminopropyl)-6,7-dihydro-5H-benzo[5,6][1,4]diazepino[7,1-a]indole-10-carboxylic acid dihydrochloride], the IC50 is reported as less than 100 nM.
`CCc1ccc2c(c1)N(CCN1CCC[C@@H](CCOC)C1)CCn1c-2c(C2CCCCC2)c2ccc(C(=O)O)cc21` [Example 1-430, 13-cyclohexyl-3-ethyl-5-{2-[(S)-3-(2-methoxyethyl)piperidin-1-yl]ethyl}-6,7-dihydro-5H-benzo[5,6][1,4]diazepino[7,1-a]indole-10-carboxylic acid dihydrochloride] showed an IC50 of less than 100 nM.
In the case of `CCN(CCCN1CCn2c(c(C3CCCCC3)c3ccc(C(=O)O)cc32)-c2ccc(Cl)cc21)CCOC` [Example 1-431, 3-chloro-13-cyclohexyl-5-{3-[N-ethyl-N-(2-methoxyethyl)amino]propyl}-6,7-dihydro-5H-benzo[5,6][1,4]diazepino[7,1-a]indole-10-carboxylic acid dihydrochloride], the IC50 is reported as less than 100 nM.
In the case of `CCN(CCCOC)CCCN1CCn2c(c(C3CCCCC3)c3ccc(C(=O)O)cc32)-c2ccc(Cl)cc21` [Example 1-432, 3-chloro-13-cyclohexyl-5-{3-[N-ethyl-N-(3-methoxypropyl)amino]propyl}-6,7-dihydro-5H-benzo[5,6][1,4]diazepino[7,1-a]indole-10-carboxylic acid dihydrochloride], the IC50 is reported as less than 100 nM.
`CCOCCCN(CC)CCCN1CCn2c(c(C3CCCCC3)c3ccc(C(=O)O)cc32)-c2ccc(Cl)cc21` [Example 1-433, 3-chloro-13-cyclohexyl-5-{3-[N-(3-ethoxypropyl)-N-ethylamino]propyl}-6,7-dihydro-5H-benzo[5,6][1,4]diazepino[7,1-a]indole-10-carboxylic acid dihydrochloride] gave an IC50 of less than 100 nM.
`COCC[C@@H]1CCCN(CCN2CCn3c(c(C4CCCCC4)c4ccc(C(=O)O)cc43)-c3ccc(F)cc32)C1` [Example 1-434, 13-cyclohexyl-3-fluoro-5-{2-[(S)-3-(2-methoxyethyl)piperidin-1-yl]ethyl}-6,7-dihydro-5H-benzo[5,6][1,4]diazepino[7,1-a]indole-10-carboxylic acid dihydrochloride] gave an IC50 of less than 100 nM.
With `Cc1ccc2c(c1)N(CCN1CCCC(CO)C1)CCn1c-2c(C2CCCCC2)c2ccc(C(=O)O)cc21` (centres unmarked) [Example 1-435, 13-cyclohexyl-5-[2-(3-hydroxymethylpiperidin-1-yl)ethyl]-3-methyl-6,7-dihydro-5H-benzo[5,6][1,4]diazepino[7,1-a]indole-10-carboxylic acid dihydrochloride] the IC50 was less than 100 nM.
In the case of `CCN(CC)CC(C)(C)CN1CCn2c(c(C3CCCCC3)c3ccc(C(=O)O)cc32)-c2ccc(Cl)cc21` [Example 1-436, 3-chloro-13-cyclohexyl-5-(3-diethylamino-2,2-dimethylpropyl)-6,7-dihydro-5H-benzo[5,6][1,4]diazepino[7,1-a]indole-10-carboxylic acid dihydrochloride], the IC50 is reported as less than 100 nM.
With `CN1CCn2c(c(C3CCCCC3)c3ccc(C(=O)O)cc32)-c2ccc(OCCN3CCCCC3)cc21` [Example 1-437, 13-cyclohexyl-5-methyl-3-[2-(piperidin-1-yl)ethoxy]-6,7-dihydro-5H-benzo[5,6][1,4]diazepino[7,1-a]indole-10-carboxylic acid dihydrochloride] the IC50 was less than 100 nM.
Work on `CN1CCn2c(c(C3CCCCC3)c3ccc(C(=O)O)cc32)-c2ccc(OCCC3CCNCC3)cc21` [Example 1-438, 13-cyclohexyl-5-methyl-3-[2-(piperidin-4-yl)ethoxy]-6,7-dihydro-5H-benzo[5,6][1,4]diazepino[7,1-a]indole-10-carboxylic acid dihydrochloride] yielded an IC50 of less than 100 nM.
`CN1CCC(CCOc2ccc3c(c2)N(C)CCn2c-3c(C3CCCCC3)c3ccc(C(=O)O)cc32)CC1` [Example 1-439, 13-cyclohexyl-5-methyl-3-[2-(1-methylpiperidin-4-yl)ethoxy]-6,7-dihydro-5H-benzo[5,6][1,4]diazepino[7,1-a]indole-10-carboxylic acid dihydrochloride] showed an IC50 of less than 100 nM.
For `Cc1ccc2c(c1)N(CCN1CCCC(C)(C)C1)CCn1c-2c(C2CCCCC2)c2ccc(C(=O)O)cc21` [Example 1-440, 13-cyclohexyl-5-[2-(3,3-dimethylpiperidin-1-yl)ethyl]-3-methyl-6,7-dihydro-5H-benzo[5,6][1,4]diazepino[7,1-a]indole-10-carboxylic acid dihydrochloride], the IC50 was less than 100 nM.
`CCN(CC)CC(CN1CCn2c(c(C3CCCCC3)c3ccc(C(=O)O)cc32)-c2ccc(Cl)cc21)OC` (centres unmarked) [Example 1-441, 3-chloro-13-cyclohexyl-5-(3-diethylamino-2-methoxypropyl)-6,7-dihydro-5H-benzo[5,6][1,4]diazepino[7,1-a]indole-10-carboxylic acid dihydrochloride] showed an IC50 of less than 100 nM.
`CCN(CCO)CCCN1CCn2c(c(C3CCCCC3)c3ccc(C(=O)O)cc32)-c2ccc(Cl)cc21` [Example 1-442, 3-chloro-13-cyclohexyl-5-{3-[N-ethyl-N-(2-hydroxyethyl)amino]propyl}-6,7-dihydro-5H-benzo[5,6][1,4]diazepino[7,1-a]indole-10-carboxylic acid dihydrochloride] was tested, and the IC50 was less than 100 nM.

Same assay, conditions: read-out: HCV polymerase inhibitory activity IC50; 25° C., 90 min; [5,6-3H]UTP incorporation into RNA
In the case of `COC[C@@H]1CCCN(CCN2CCn3c(c(C4CCCCC4)c4ccc(C(=O)O)cc43)-c3ccc(C)cc32)C1` [Example 1-416, 13-cyclohexyl-5-[2-((R)-3-methoxymethylpiperidin-1-yl)ethyl]-3-methyl-6,7-dihydro-5H-benzo[5,6][1,4]diazepino[7,1-a]indole-10-carboxylic acid dihydrochloride], the IC50 is reported as less than 100 nM.
`O=C(O)c1ccc2c(C3CCCCC3)c3n(c2c1)CCN(CCN1CCCCCCC1)c1ccccc1-3` [Example 1-423, 5-[2-(azocan-1-yl)ethyl]-13-cyclohexyl-6,7-dihydro-5H-benzo[5,6][1,4]diazepino[7,1-a]indole-10-carboxylic acid dihydrochloride] was tested, and the IC50 was less than 100 nM.
